Measurements as given in US20240043435A1, “TYK-2 INHIBITOR” (BEIGENE, LTD., priority 2020, published 2024).

Columns and labels:
[1] = molecular target: T1, TYK2-JH2 (aa 575-869, in-house) protein (Homo sapiens, UniProt P29597); test: TYK2-JH2 biochemical assay (HTRF probe displacement); format: binding; conditions: Biochemical assay; read-out: TYK2-JH2 IC50
T1 construct: TYK2-JH2 (aa 575-869, in-house) protein; made in house
In short: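 HTRF probe-displacement format: compound dilutions (10 points, 5-fold, from 500 uM in DMSO at 500×) were combined with 0.2 nM TYK2-JH2 protein for 0.5 h at room temperature in HEPES pH 7.5 buffer with MgCl2, BSA, DTT and Brij-35. Percent inhibition came from the 615/665 nm fluorescence ratio, fitted to a four-parameter logistic for IC50.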

[2] = test system: JAK2, TYK2/p-STAT4 (Tyr693) activated by IL-12 in NK-92 cell line; test: IL-12-JAK2, TYK2/p-STAT4 (Tyr693) inhibition IC50 cellular assay; format: cell-based; conditions: for IC50: NK92, Cellular assay, read-out: pSTAT4/IL-12 IC50; for Selectivity fold (TYK2/JAK2): Cellular assay, pSTAT5/GM-CSF IC50 vs pSTAT4/IL-12 IC50
In short: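 p-STAT4 (Tyr693) in lysates was measured by AlphaLISA SureFire Ultra after a 30 min IL-12 challenge (40 ng/ml final) at 37° C. Overnight-starved, IL-2-free NK-92 cells had been pretreated 1 h with compound at 10000 to 0.61 nM (4-fold, 8 points). IC50 values came from four-parameter logistic fitting.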

pSTAT5/GM-CSF = pSTAT5/GM-CSF cellular assay (JAK2 selectivity); format: cell-based; conditions: for Selectivity fold (TYK2/JAK2): pSTAT5/GM-CSF IC50 over pSTAT4/IL-12 IC50

T1 sequence (P29597 575-869): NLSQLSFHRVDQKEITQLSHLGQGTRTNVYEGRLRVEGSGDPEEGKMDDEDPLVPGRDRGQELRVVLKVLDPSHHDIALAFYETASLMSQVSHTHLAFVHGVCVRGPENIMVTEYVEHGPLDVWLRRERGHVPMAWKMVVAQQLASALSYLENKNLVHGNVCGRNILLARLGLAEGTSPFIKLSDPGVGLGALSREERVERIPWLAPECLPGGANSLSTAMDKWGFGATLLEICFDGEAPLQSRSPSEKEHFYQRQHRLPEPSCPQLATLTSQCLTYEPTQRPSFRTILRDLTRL

Row | IC50 [1] | IC50 [2] | IC50 (pSTAT5/GM-CSF) | Compound | Selectivity fold (TYK2/JAK2) (pSTAT5/GM-CSF) | Selectivity fold (TYK2/JAK2) [2]
1 | 0.038 nM | 1.33 nM | 3420 nM | COC1CCN(c2cc(Nc3cc(NC(C)=O)ncc3-c3ccc4c(n3)OCC(C)(C)O4)nc(S(C)(=O)=O)c2)CC1 [Example Q52, N-(5-(2,2-dimethyl-2,3-dihydro-[1,4]dioxino[2,3-b]pyridin-6-yl)-4-((4-(4-methoxypiperidin-1-yl)-6-(methylsulfonyl)pyridin-2-yl)amino)pyridin-2-yl)acetamide] | 2571 fold | 
2 | 0.027 nM | 2.98 nM | > 10000 nM | COC(C)c1cc(Nc2cc(NC(C)=O)ncc2-c2ccn(C)n2)nc(S(C)(=O)=O)c1 (stereo not shown) [Example J41, N-(4-((4-(1-methoxyethyl)-6-(methylsulfonyl)pyridin-2-yl)amino)-5-(1-methyl-1H-pyrazol-3-yl)pyridin-2-yl)acetamide] | >3355 fold | 
3 | 0.036 nM | 50.2 nM | > 10000 nM | COc1cc(Nc2cc(NC(C)=O)ncc2-c2ccn([C@@H]3CCOC3)n2)nc(S(C)(=O)=O)c1 [Example M35, (R)-N-(4-((4-methoxy-6-(methylsulfonyl)pyridin-2-yl)amino)-5-(1-(tetrahydrofuran-3-yl)-1H-pyrazol-3-yl)pyridin-2-yl)acetamide] | >199 fold | 
4 | 0.05 nM | 6.34 nM | > 10000 nM | CC(=O)Nc1cc(Nc2cc(OC(F)(F)F)cc(S(C)(=O)=O)c2)c(-c2ccn(C)n2)cn1 [Example J10, N-(5-(1-methyl-1H-pyrazol-3-yl)-4-((3-(methylsulfonyl)-5-(trifluoromethoxy)phe-nyl)amino)pyridin-2-yl)acetamide] | >1577 fold | 
5 | 0.073 nM | 7.67 nM | > 10000 nM | CC(=O)Nc1cc(Nc2cc(C)cc(S(C)(=O)=O)c2)c(-c2ccn(C)n2)cn1 [Example J8, N-(5-(1-methyl-1H-pyrazol-3-yl)-4-((3-methyl-5-(methylsulfonyl)phenyl)amino)pyridin-2-yl)acetamide] | >1303 fold | 
6 | 0.036 nM | 10.7 nM | > 10000 nM | CC(=O)Nc1cc(Nc2cc(Oc3ccccc3)cc(S(C)(=O)=O)n2)c(-c2ccn(C)n2)cn1 [Example J39, N-(5-(1-methyl-1H-pyrazol-3-yl)-4-((6-(methylsulfonyl)-4-phenoxypyridin-2-yl)amino)pyridin-2-yl)acetamide] | >935 fold | 
7 | 0.032 nM | 1.21 nM | > 10000 nM | CCn1ccc(-c2cnc(NC(C)=O)cc2Nc2cc(OC(C)C)cc(S(C)(=O)=O)n2)n1 [Example M6, N-(5-(1-ethyl-1H-pyrazol-3-yl)-4-((4-isopropoxy-6-(methylsulfonyl)pyridin-2-yl)amino)pyridin-2-yl)acetamide] | >8264 fold | 
8 | 0.045 nM | 12.4 nM | > 10000 nM | CC(=O)Nc1cc(Nc2cccc(S(=O)(=O)C(C)C)n2)c(-c2ccn(C)n2)cn1 [Example J29, N-(4-((6-(isopropylsulfonyl)pyri-din-2-yl)amino)-5-(1-methyl-1H-pyrazol-3-yl)pyridin-2-yl)acetamide] | >805 fold | 
9 | 0.062 nM | 1.01 nM | > 10000 nM | CCn1ccc(-c2cnc(NC(C)=O)cc2Nc2cc(OCCOC)cc(S(C)(=O)=O)n2)n1 [Example M20, N-(5-(1-ethyl-1H-pyrazol-3-yl)-4-((4-(2-methoxyethoxy)-6-(methylsulfonyl)pyridin-2-yl)amino)pyridin-2-yl)acetamide] | >9900 fold | 
10 | 0.035 nM | 70.2 nM | > 10000 nM | CC(=O)Nc1cc(Nc2cc(OCC(O)CO)cc(S(C)(=O)=O)n2)c(-c2ccn(C)n2)cn1 (stereo not shown) [Example J48, N-(4-((4-(2,3-dihydroxypropoxy)-6-(methylsulfonyl)pyridin-2-yl)amino)-5-(1-methyl-1H-pyrazol-3-yl)pyridin-2-yl)acetamide] | >1421411 fold | 
11 | 0.047 nM | 0.581 nM | > 10000 nM | CO[C@H]1C[C@@H](c2cc(Nc3cc(NC(C)=O)ncc3-c3ccc4c(n3)OCC(C)(C)O4)nc(S(C)(=O)=O)c2)C1 [Example Q53, N-(5-(2,2-dimethyl-2,3-dihydro-[1,4]dioxino[2,3-b]pyridin-6-yl)-4-((4-((cis)-3-methoxycyclobutyl)-6-(methylsulfonyl)pyridin-2-yl)amino)pyridin-2-yl)acetamide] | >17211 fold | 

Second part, the molecule before the results:

Row | Compound | IC50 [1] | IC50 [2] | IC50 (pSTAT5/GM-CSF) | Selectivity fold (TYK2/JAK2) (pSTAT5/GM-CSF) | Selectivity fold (TYK2/JAK2) [2]
12 | CCOc1cc(Nc2cc(NC(C)=O)ncc2-c2ccc(OCCOC)cn2)nc(S(C)(=O)=O)c1 [Example D9, N-(4′-((4-ethoxy-6-(methylsulfonyl)pyridin-2-yl)amino)-5-(2-methoxyethoxy)-[2,3′-bipyridin]-6′-yl)acetamide] | 0.021 nM | 0.479 nM | > 10000 nM |  | >20876 fold
13 | COCc1ccc(-c2cnc(NC(C)=O)cc2Nc2cccc(S(C)(=O)=O)c2)nc1 [Example E1, N-(5-(methoxymethyl)-4′-((3-(methylsulfonyl)phenyl)amino)-[2,3′-bipyridin]-6′-yl)acetamide] | 0.022 nM | 4.55 nM | > 10000 nM |  | >2197 fold
14 | CC(=O)Nc1cc(Nc2cc(C)cc(S(C)(=O)=O)n2)c(-c2ccc(N3C[C@@H](C)O[C@@H](C)C3)cn2)cn1 [Example C1, N-(5-(cis-2,6-dimethylmorpholino)-4′-((4-methyl-6-(methylsulfonyl)pyridin-2-yl)amino)-[2,3′-bipyridin]-6′-yl)acetamide] | 0.027 nM | 0.881 nM | 563 nM |  | 639 fold
15 | CC(=O)Nc1cc(Nc2cncc(S(C)(=O)=O)n2)c(-c2ccc(N3C[C@@H](C)O[C@@H](C)C3)cn2)cn1 [Example C22, N-(5-(cis-2,6-dimethylmorpholino)-4′-((6-(methylsulfonyl)pyrazin-2-yl)amino)-[2,3′-bipyridin]-6′-yl)acetamide] | 0.023 nM | 0.476 nM | > 10000 nM |  | >21008 fold
16 | COCCOc1ccc(-c2cnc(NC(C)=O)cc2Nc2cc(OC(C)C)cc(S(C)(=O)=O)n2)nc1 [Example D6, N-(4′-((4-isopropoxy-6-(methylsulfonyl)pyridin-2-yl)amino)-5-(2-methoxyethoxy)-[2,3′-bipyridin]-6′-yl)acetamide] | 0.025 nM | 0.593 nM | > 10000 nM |  | >16863 fold
17 | CC(=O)Nc1cc(Nc2cc(C(F)F)cc(S(C)(=O)=O)c2)c(-c2ccc(C(C)(C)O)cn2)cn1 [Example H25, N-(4′-((3-(difluoromethyl)-5-(methylsulfonyl)phenyl)amino)-5-(2-hydroxypropan-2-yl)-[2,3′-bipyridin]-6′-yl)acetamide] | 0.038 nM | 7.53 nM | > 10000 nM |  | >1328 fold
18 | COCCOc1ccc(-c2cnc(NC(C)=O)cc2Nc2cc(OCCOC)cc(S(C)(=O)=O)n2)nc1 [Example D8, N-(5-(2-methoxyethoxy)-4′-((4-(2-methoxyethoxy)-6-(methylsulfonyl)pyridin-2-yl)amino)-[2,3′-bipyridin]-6′-yl)acetamide] | 0.036 nM | 0.443 nM | > 10000 nM |  | >22573 fold
19 | COC1CN(c2cc(Nc3cc(NC(C)=O)ncc3-c3ccc(N4C[C@@H](C)O[C@@H](C)C4)cn3)nc(S(C)(=O)=O)c2)C1 [Example C25, N-(5-(cis-2,6-dimethyl-morpholino)-4′-((4-(3-methoxy-azetidin-1-yl)-6-(methylsulfonyl)pyridin-2-yl)amino)-[2,3′-bipyridin]-6′-yl)acetamide] | 0.037 nM | 0.827 nM | 1060 nM |  | 1288 fold
20 | COCCOc1cc(Nc2cc(NC(C)=O)ncc2-c2ccc(COC)cn2)nc(S(C)(=O)=O)c1 [Example E5, N-(4′-((4-(2-methoxyethoxy)-6-(methylsulfonyl)pyridin-2-yl)amino)-5-(methoxymethyl)-[2,3′-bipyridin]-6′-yl)acetamide] | 0.022 nM | 0.501 nM | > 10000 nM |  | >19960 fold
21 | COc1ccc(-c2cnc(NC(C)=O)cc2Nc2cc(OC(C)C)cc(S(C)(=O)=O)n2)nn1 [Example A26, N-(4-((4-isopropoxy-6-(methylsulfonyl)pyridin-2-yl)amino)-5-(6-methoxypyridazin-3-yl)pyridin-2-yl)acetamide] | 0.032 nM | 0.405 nM | > 10000 nM |  | >24691 fold
22 | COCCOc1ccc(-c2cnc(NC(C)=O)cc2Nc2cc(OC)cc(S(C)(=O)=O)n2)nc1 [Example D5, N-(4′-((4-methoxy-6-(methylsulfonyl)pyridin-2-yl)amino)-5-(2-methoxyethoxy)-[2,3′-bipyridin]-6′-yl)acetamide] | 0.036 nM | 0.99 nM | > 10000 nM |  | >10101 fold
